Tested on: luminescent Pseudomonas aeruginosa
Test: LD50 of luminescent Pseudomonas aeruginosa in mice, effect of anesthesia or adjuvant on virulence
Format: in vivo
Settings: Ketamine-sedated mice; non-anesthetized mice: approximately 2.5×10^6 CFU
Description: One of the factors typically determined in the calibration process is a suitable dose of pathogen for the selected model system of sepsis. This dose is preferably based on the LD50 of the pathogen in the particular animal model of sepsis being used. The LD50, or “Lethal Dose 50”, is a measure for quantifying the effects of a perturbation (e.g., a test compound, procedure, or bacterial infection) on a biological system. It represents the 50% mortality point—that is, the concentration or level of a particular perturbation at which half of the animals die by the end of the experiment.
The LD50 may change depending on the experimental parameters. The measure is therefore expressed as an LD50 for a given experimental system. By way of example, it was discovered in the course of experiments performed in support of the present invention that the type of anesthesia used to prepare the animals for imaging can have a significant effect on the LD50. Specifically, it was discovered that anesthesia induced by injectable Ketamine may potentiate the virulence of some pathogens.
For example, it was found during experiments performed in support of the present invention that pathogen virulence is boosted by administration of 5% (by volume) hog gastric mucin to the host. […]

In the case of `CNC1(c2ccccc2Cl)CCCCC1=O` (stereo not shown) [Ketamine], the “LD50 of luminescent Pseudomonas aeruginosa” value is reported as ~4.6×10^5 CFU.

From patent US6964856B2, “Animal models and methods for sepsis” (priority 1999, dated 2005)
